Measurements as given in patent publication US20220119354A1, “DIAMINO-SUBSTITUTED PYRIDINES AND PYRIMIDINES AS HERBICIDES” (FMC Corporation, priority 2019, published 2022).

Tests used:
Assay type in all cases: in vivo
[1] = system: wheat (Triticum aestivum); assay: Test A postemergence, wheat; conditions: 0 to 100 scale
Procedure, shortened: (§1)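 Greenhouse pot test, loam/sand soil. Pre: directed soil spray at planting; post: foliar spray at 1–2 leaf stage (2–10 cm). Chemical in non-phytotoxic solvent + surfactant. Visual rating ~10 d, 0 = no effect, 100 = complete control.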

kochia (Kochia scoparia) [2] = assay: Test A preemergence, kochia; conditions: 0 to 100 scale
Procedure, shortened: as §1

[3] = system: ragweed (common ragweed, Ambrosia elatior); assay: Test A preemergence, ragweed; conditions: 0 to 100 scale
Procedure, shortened: as §1

corn (Zea mays) = assay: Test A postemergence, corn; conditions: 0 to 100 scale
Procedure, shortened: as §1

[4] = system: barnyardgrass (Echinochloa crus-galli); assay: Test B flooded paddy test, barnyardgrass; conditions: Flood, 250 g ai/ha, applied to paddy water, 2-leaf stage, visual evaluation after 13 to 15 d
Procedure, shortened: (§2)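 Rating: 0 = no effect, 100 = complete control, visual, relative to untreated plants. Conditions: 2-leaf stage, 3 cm flood kept constant, compound put directly into water, 13–15 d greenhouse.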

[5] = system: foxtail, giant (Setaria faberii); assay: Test A postemergence, giant foxtail; conditions: 0 to 100 scale
Procedure, shortened: as §1

[6] = system: blackgrass (Alopecurus myosuroides); assay: Test A postemergence, blackgrass; conditions: 0 to 100 scale
Procedure, shortened: as §1

[7] = system: ryegrass, Italian (Lolium multiflorum); assay: Test A preemergence, Italian ryegrass; conditions: 0 to 100 scale
Procedure, shortened: as §1

[8] = system: sedge, umbrella (small-flower umbrella sedge, Cyperus difformis); assay: Test B flooded paddy test, umbrella sedge; conditions: Flood, 250 g ai/ha, applied to paddy water, 2-leaf stage, visual evaluation after 13 to 15 d
Procedure, shortened: as §2

[9] = system: galium (catchweed bedstraw, Galium aparine); assay: Test A postemergence, galium; conditions: 0 to 100 scale
Procedure, shortened: as §1

[10] = system: pigweed (Amaranthus retroflexus); assay: Test A postemergence, pigweed; conditions: 0 to 100 scale
Procedure, shortened: as §1

[11] = system: foxtail, giant (Setaria faberii); assay: Test A preemergence, giant foxtail; conditions: 0 to 100 scale
Procedure, shortened: as §1

[12] = system: ragweed (common ragweed, Ambrosia elatior); assay: Test A postemergence, ragweed; conditions: 0 to 100 scale
Procedure, shortened: as §1

[13] = system: barnyardgrass (Echinochloa crus-galli); assay: Test A preemergence, barnyardgrass; conditions: 0 to 100 scale
Procedure, shortened: as §1

kochia (Kochia scoparia) [14] = assay: Test A postemergence, kochia; conditions: 0 to 100 scale
Procedure, shortened: as §1

rice (Oryza sativa) = assay: Test B flooded paddy test, rice; conditions: Flood, 250 g ai/ha, applied to paddy water, 2-leaf stage, visual evaluation after 13 to 15 d
Procedure, shortened: as §2

[15] = system: barnyardgrass (Echinochloa crus-galli); assay: Test A postemergence, barnyardgrass; conditions: 0 to 100 scale
Procedure, shortened: as §1

[16] = system: ryegrass, Italian (Lolium multiflorum); assay: Test A postemergence, Italian ryegrass; conditions: 0 to 100 scale
Procedure, shortened: as §1

[17] = system: ducksalad (Heteranthera limosa); assay: Test B flooded paddy test, ducksalad; conditions: Flood, 250 g ai/ha, applied to paddy water, 2-leaf stage, visual evaluation after 13 to 15 d
Procedure, shortened: as §2

[18] = system: pigweed (Amaranthus retroflexus); assay: Test A preemergence, pigweed; conditions: 0 to 100 scale
Procedure, shortened: as §1

SMILES	Plant response rating, Wheat ([1]; 125 g ai/ha)	Plant response rating, Wheat ([1]; 500 g ai/ha)	Plant response rating, Kochia (kochia (Kochia scoparia) [2]; 125 g ai/ha)	Plant response rating, Kochia (kochia (Kochia scoparia) [2]; 500 g ai/ha)	Plant response rating, Ragweed ([3]; 125 g ai/ha)	Plant response rating, Ragweed ([3]; 500 g ai/ha)	Plant response rating, Corn (corn (Zea mays); 125 g ai/ha)	Plant response rating, Corn (corn (Zea mays); 500 g ai/ha)	Plant response rating, Barnyardgrass (0 to 100 scale, 0 is no effect, 100 is complete control) [4]	Plant response rating, Foxtail, Giant ([5]; 125 g ai/ha)	Plant response rating, Foxtail, Giant ([5]; 500 g ai/ha)	Plant response rating, Blackgrass ([6]; 125 g ai/ha)	Plant response rating, Blackgrass ([6]; 500 g ai/ha)	Plant response rating, Ryegrass, Italian ([7]; 125 g ai/ha)	Plant response rating, Ryegrass, Italian ([7]; 500 g ai/ha)	Plant response rating, Sedge, Umbrella (0 to 100 scale, 0 is no effect, 100 is complete control) [8]	Plant response rating, Galium ([9]; 125 g ai/ha)	Plant response rating, Galium ([9]; 500 g ai/ha)	Plant response rating, Pigweed ([10]; 125 g ai/ha)	Plant response rating, Pigweed ([10]; 500 g ai/ha)	also measured
C[C@H](Nc1ncc(C(F)(F)F)c(N)n1)c1cc2ccccc2s1 [Compound 5]	0	0	0	0	0	0	10	0	0	0	0	0	0	20	20	0	0	40	20	90	Plant response rating, Foxtail, Giant ([11]; 125 g ai/ha): 0; Plant response rating, Foxtail, Giant ([11]; 500 g ai/ha): 10; Plant response rating, Ragweed ([12]; 125 g ai/ha): 0; Plant response rating, Ragweed ([12]; 500 g ai/ha): 10; Plant response rating, Barnyardgrass ([13]; 125 g ai/ha): 0; Plant response rating, Barnyardgrass ([13]; 500 g ai/ha): 0; Plant response rating, Kochia (kochia (Kochia scoparia) [14]; 125 g ai/ha): 0; Plant response rating, Kochia (kochia (Kochia scoparia) [14]; 500 g ai/ha): 20; Plant response rating, Rice (0 to 100 scale, 0 is no effect, 100 is complete control) (rice (Oryza sativa)): 0; Plant response rating, Barnyardgrass ([15]; 125 g ai/ha): 0; Plant response rating, Barnyardgrass ([15]; 500 g ai/ha): 0; Plant response rating, Ryegrass, Italian ([16]; 125 g ai/ha): 0; Plant response rating, Ryegrass, Italian ([16]; 500 g ai/ha): 0; Plant response rating, Ducksalad (0 to 100 scale, 0 is no effect, 100 is complete control) [17]: 0; Plant response rating, Pigweed ([18]; 125 g ai/ha): 0; Plant response rating, Pigweed ([18]; 500 g ai/ha): 50
C[C@@H](Nc1ncc(C(F)(F)F)c(N)n1)c1cc2cc(C(F)(F)F)ccc2o1 [Compound 7]	0	0	0	0	0	0	0	0	0	0	0	0	0	0	0	0	0	20	30	90	Plant response rating, Foxtail, Giant ([11]; 125 g ai/ha): 0; Plant response rating, Foxtail, Giant ([11]; 500 g ai/ha): 0; Plant response rating, Ragweed ([12]; 125 g ai/ha): 0; Plant response rating, Ragweed ([12]; 500 g ai/ha): 0; Plant response rating, Barnyardgrass ([13]; 125 g ai/ha): 0; Plant response rating, Barnyardgrass ([13]; 500 g ai/ha): 0; Plant response rating, Kochia (kochia (Kochia scoparia) [14]; 125 g ai/ha): 0; Plant response rating, Kochia (kochia (Kochia scoparia) [14]; 500 g ai/ha): 0; Plant response rating, Rice (0 to 100 scale, 0 is no effect, 100 is complete control) (rice (Oryza sativa)): 0; Plant response rating, Barnyardgrass ([15]; 125 g ai/ha): 0; Plant response rating, Barnyardgrass ([15]; 500 g ai/ha): 0; Plant response rating, Ryegrass, Italian ([16]; 125 g ai/ha): 0; Plant response rating, Ryegrass, Italian ([16]; 500 g ai/ha): 0; Plant response rating, Ducksalad (0 to 100 scale, 0 is no effect, 100 is complete control) [17]: 0; Plant response rating, Pigweed ([18]; 125 g ai/ha): 0; Plant response rating, Pigweed ([18]; 500 g ai/ha): 30
